Results as given in PubChem BioAssay (NCI).
Values joined by “and” are separate entries in the source; they are usually repeats but may differ in a detail not shown here. Equal values may be shown once.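 Compound exposure: 48 hours, 5 concentrations, 96-well plates. GI50 = concentration required for 50% inhibition of growth. The concentration for full growth arrest is given as TGI.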

Experiments:
Assay in all cases: NCI tumour cell line growth inhibition, 48 h
[1] = tested on: K-562 leukemia
[2] = tested on: KM12 colon
[3] = tested on: HOP-18 NSCLC
[4] = tested on: SNB-78 CNS
[5] = tested on: KM20L2 colon
[6] = tested on: DMS 273 small cell lung
[7] = tested on: HCT-15 colon
[8] = tested on: M19-MEL melanoma
[9] = tested on: HT29 colon
[10] = tested on: DLD-1 colon
[11] = tested on: DMS 114 small cell lung

| Compound | TGI [1] | TGI [2] | TGI [3] [µM] | TGI [4] | TGI [5] | TGI [6] [µM] | TGI [7] | TGI [8] | TGI [9] [µM] | TGI [10] [µM] | TGI [11] [µM] | GI50 [1] [µM] | GI50 [2] [µM] | GI50 [4] [µM] | GI50 [5] [µM] | GI50 [7] [µM] | GI50 [8] [µM] | GI50 [9] [µM] | GI50 [10] [µM] |
| --- | --- | --- | --- | --- | --- | --- | --- | --- | --- | --- | --- | --- | --- | --- | --- | --- | --- | --- | --- |
| COc1cccc2c1C(=O)c1c(O)c3c(c(O)c1C2=O)C[C@@](O)(C(=O)CO)C[C@@H]3OC1CC(N)C(OC)C(C)O1 (stereo partly drawn) | 0.0483 µM | 0.931 µM | 0.977 | 16.9 µM | 4.83 µM | 1.4 | 13.2 µM | 0.237 µM | 1.66 | 3.37 |  |  |  |  |  |  |  |  |  |
| CC#C[P+](c1ccccc1)(c1ccccc1)c1ccccc1 | 11.8 µM | 11.3 µM | 25.4 | 22.9 µM | 21.3 µM | 10.6 | 35.8 µM | 11.8 µM | 12.9 | 16.7 | 9.95 |  |  |  |  |  |  |  |  |
| CC(C)=CCc1c(O)ccc2ccc(=O)oc12 | > 100 µM | > 100 µM | > 100 | > 100 µM | > 100 µM | > 100 | > 100 µM | > 100 µM | > 100 | > 100 | 93.6 |  |  |  |  |  |  |  |  |
| CCCC(O)C(NC(=O)CCl)C(=O)O (stereo not drawn) | > 100 µM | > 100 µM | > 100 | > 100 µM | > 100 µM | > 100 | > 100 µM | > 100 µM | > 100 | > 100 | > 100 |  |  |  |  |  |  |  |  |
| CC12CCC3C(CCC4=CC(O)CCC43C=O)C1(O)CCC2c1ccc(=O)oc1 (stereo not drawn) | 0.247 µM and 0.143 µM | 0.0935 µM and 0.0832 µM | 0.0461 | 0.202 µM and 0.0635 µM | 0.0365 µM and 0.0562 µM | 0.0228 | 0.107 µM and 0.0622 µM | 0.072 µM and 0.061 µM |  | 0.0571 | 0.00996 | 0.0274 | 0.05 | 0.05 | 0.05 | 0.0125 | 0.05 | 0.0667 | 0.00769 |
| COc1cc(/C=C/C(=O)O)ccc1C(=O)OCc1ccccc1 | > 100 µM | > 100 µM | > 100 | > 100 µM | > 100 µM | > 100 | > 100 µM | > 100 µM | > 100 | > 100 | > 100 |  |  |  |  |  |  |  |  |
| COc1cc2c(cc1O)C1C(O)C(O)C=C3CCN(C2)C31 (stereo not drawn) | > 100 µM | 11 µM | 8.19 | 9.27 µM | 18.3 µM | 8.24 | 25.2 µM | 8.84 µM | 18.9 | 14.2 | 4.33 |  |  |  |  |  |  |  |  |
